Experimental data from patent publication US9815846B2 (Merck Sharp & Dohme Corp., priority 2014, dated 2017).
pIC50: −log10 of the molar value.

Target: human TrkA receptor (Homo sapiens (Human), UniProt P04629)
Experiment: DiscoverX PathHunter TrkA functional assay (NGF-stimulated U2OS cells)
Format: cell-based
Conditions: U2OS cells expressing human TrkA-PK, Shc1-EA and p75NTR; compound 1 h, then NGF at ~80% of maximal response for 3 h; luminescence

Chain of human TrkA receptor (P04629 33-796): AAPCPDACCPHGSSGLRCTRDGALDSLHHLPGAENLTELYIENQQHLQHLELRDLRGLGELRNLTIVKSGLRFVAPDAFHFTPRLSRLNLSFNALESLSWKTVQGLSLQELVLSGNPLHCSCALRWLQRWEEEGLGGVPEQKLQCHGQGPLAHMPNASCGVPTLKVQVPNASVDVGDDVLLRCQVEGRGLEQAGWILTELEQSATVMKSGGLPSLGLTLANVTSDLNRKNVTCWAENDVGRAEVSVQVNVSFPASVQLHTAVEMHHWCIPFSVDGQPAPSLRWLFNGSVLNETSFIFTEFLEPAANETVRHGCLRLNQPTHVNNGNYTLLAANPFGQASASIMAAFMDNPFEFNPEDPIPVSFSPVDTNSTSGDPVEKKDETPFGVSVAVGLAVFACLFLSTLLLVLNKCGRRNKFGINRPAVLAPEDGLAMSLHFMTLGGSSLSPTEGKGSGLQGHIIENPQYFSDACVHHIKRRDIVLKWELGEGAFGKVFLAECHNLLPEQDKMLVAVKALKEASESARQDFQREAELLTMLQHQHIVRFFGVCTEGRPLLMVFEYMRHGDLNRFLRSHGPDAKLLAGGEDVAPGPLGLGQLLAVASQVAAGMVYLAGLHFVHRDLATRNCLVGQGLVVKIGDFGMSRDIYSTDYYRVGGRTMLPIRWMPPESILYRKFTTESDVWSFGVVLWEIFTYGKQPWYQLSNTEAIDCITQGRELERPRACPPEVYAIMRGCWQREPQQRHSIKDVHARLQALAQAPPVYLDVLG

| Compound | pIC50 |
| --- | --- |
| Cn1ccc(-c2cc(C(=O)Nc3ccc(CNC(=O)C(O)CO)nc3-c3ccccc3)c(F)cc2C(F)(F)F)n1 (single isomer, unassigned) [Example 61, (S or R)-N-(6-((2,3-dihydroxypropanamido)methyl)-2-phenylpyridin-3-yl)-2-fluoro-5-(1-methyl-1H-pyrazol-3-yl)-4-(trifluoromethyl)benzamide] | 9.19 |
| Cn1ccc(-c2cc(C(=O)Nc3ccc(CNC(=O)C(O)CO)nc3-c3ccccc3)c(F)cc2C(F)(F)F)n1 (single isomer, unassigned) [Example 62, (S or R)-N-(6-((2,3-dihydroxypropanamido)methyl)-2-phenylpyridin-3-yl)-2-fluoro-5-(1-methyl-1H-pyrazol-3-yl)-4-(trifluoromethyl)benzamide] | 9.10 |
| CN1CCOC(C(=O)NCc2ccc(NC(=O)c3cc(-c4ccn(C)n4)c(C(F)(F)F)cc3F)c(-c3ccccc3)n2)C1 (single isomer, unassigned) [Example 63, (S or R)-N-((5-(2-fluoro-5-(1-methyl-1H-pyrazol-3-yl)-4-(trifluoromethyl)benzamido)-6-phenylpyridin-2-yl)methyl)-4-methylmorpholine-2-carboxamide] | 8.74 |
| Cn1ccc(-c2cc(C(=O)Nc3cnc(CNC(=O)C(C)(N)CO)nc3-c3ccccc3)c(F)cc2C(F)(F)F)n1 (single isomer, unassigned) [Example 66, (S or R)-N-(2-((2-amino-3-hydroxy-2-methylpropanamido)methyl)-4-phenylpyrimidin-5-yl)-2-fluoro-5-(1-methyl-1H-pyrazol-3-yl)-4-(trifluoromethyl)benzamide] | 8.92 |
| Cn1ccc(-c2cc(C(=O)Nc3cc(C4CCC(=O)N4)cnc3-c3ccccc3)c(F)cc2C(F)(F)F)n1 (single isomer, unassigned) [Example 181, (R or S)-2-Fluoro-5-(1-methyl-1H-pyrazol-3-yl)-N-(5-(5-oxopyrrolidin-2-yl)-2-phenylpyridin-3-yl)-4-(trifluoromethyl)benzamide] | 8.46 |
| Cn1ccc(-c2cc(C(=O)Nc3ccc(C4CCNC4=O)nc3-c3ccccc3)ccc2C(F)(F)F)n1 (single isomer, unassigned) [Example 186, (R or S)-3-(1-Methyl-1H-pyrazol-3-yl)-N-(6-(2-oxopyrrolidin-3-yl)-2-phenylpyridin-3-yl)-4-(trifluoromethyl)benzamide] | 8.30 |
| Cn1ccc(-c2cc(C(=O)Nc3cnc(CC4NC(=O)NC4=O)nc3-c3ccccc3)ccc2C(F)(F)F)n1 (single isomer, unassigned) [Example 190, (R or S)—N-(2-(2,5-Dioxoimidazolidin-4-yl)methyl)-4-phenylpyrimidin-5-yl)-3-(1-methyl-1H-pyrazol-3-yl)-4-(trifluoromethyl)benzamide] | 8.74 |
| Cn1ccc(-c2cc(C(=O)Nc3cnc(CC4CCNC4=O)nc3-c3ccccc3)c(F)cc2C(F)(F)F)n1 (single isomer, unassigned) [Example 191, (R or S)-2-Fluoro-5-(1-methyl-1H-pyrazol-3-yl)-N-(2-(2-oxopyrrolidin-3-yl)methyl)-4-phenylpyrimidin-5-yl)-4-(trifluoromethyl)benzamide] | 8.35 |
| Cn1ccc(-c2cc(C(=O)Nc3ccc(C(O)CO)nc3-c3ccccc3)c(F)cc2C(F)(F)F)n1 (single isomer, unassigned) [Example 192, (R or S)—N-(6-(1,2-Dihydroxyethyl)-2-phenylpyridin-3-yl)-2-fluoro-5-(1-methyl-1H-pyrazol-3-yl)-4-(trifluoromethyl)benzamide] | 8.64 |
| Cn1ccc(-c2cc(C(=O)Nc3ccc(C4COC(=O)N4)nc3-c3ccccc3)c(F)cc2C(F)(F)F)n1 (single isomer, unassigned) [Example 196, (R or S)-2-Fluoro-5-(1-methyl-1H-pyrazol-3-yl)-N-(6-(2-oxooxazolidin-4-yl)-2-phenylpyridin-3-yl)-4-(trifluoromethyl)benzamide] | 9.72 |
| Cn1ccc(-c2cc(C(=O)Nc3cnc(C4CCNC4=O)nc3-c3ccccc3)c(F)cc2C(F)(F)F)n1 (single isomer, unassigned) [Example 197, (R or S)-2-Fluoro-5-(1-methyl-1H-pyrazol-3-yl)-N-(2-(2-oxopyrrolidin-3-yl)-4-phenylpyrimidin-5-yl)-4-(trifluoromethyl)benzamide] | 8.43 |
| Cn1ccc(-c2cc(C(=O)Nc3ccc(C4CNC(=O)C4)nc3-c3ccccc3)c(F)cc2C(F)(F)F)n1 (single isomer, unassigned) [Example 198, (R or S)-2-Fluoro-5-(1-methyl-1H-pyrazol-3-yl)-N-(6-(5-oxopyrrolidin-3-yl)-2-phenylpyridin-3-yl)-4-(trifluoromethyl)benzamide] | 9.24 |
| Cn1ccc(-c2cc(C(=O)Nc3cnc(CN4CCOC4=O)nc3-c3ccccc3)c(F)cc2C(F)(F)F)n1 (single isomer, unassigned) [Example 218] | 9.85 |
| Cn1ccc(-c2cc(C(=O)Nc3cnc(CN4CC(CO)OC4=O)nc3-c3ccccc3)c(F)cc2C(F)(F)F)n1 (single isomer, unassigned) [Example 228, (R or S)-2-fluoro-N-(2-((5-(hydroxymethyl)-2-oxooxazolidin-3-yl)methyl)-4-phenylpyrimidin-5-yl)-5-(1-methyl-1H-pyrazol-3-yl)-4-(trifluoromethyl)benzamide] | 9.18 |
| O=C(Nc1cc(N2CCOCC2)cnc1-c1ccccc1)c1ccc(C(F)(F)F)cc1Cl [Example 1, 2-Chloro-N-(5-morpholino-2-phenylpyridin-3-yl)-4-(trifluoromethyl)benzamide] | 6.32 |
| Cc1ncc(NC(=O)c2cc(-c3ncccn3)c(Cl)cc2F)c(-c2ccccc2)n1 [Example 2, 4-Chloro-2-fluoro-N-(2-methyl-4-phenylpyrimidin-5-yl)-5-(pyrimidin-2-yl)benzamide] | 7.00 |
| Cc1cc(-c2ccccc2)c(NC(=O)c2ccc(OC(F)(F)F)c(-c3ccn(C)n3)c2)cn1 [Example 3, 3-(1-Methyl-1H-pyrazol-3-yl)-N-(6-methyl-4-phenylpyridin-3-yl)-4-(trifluoromethoxy)benzamide] | 7.27 |
| Cc1nc(Cl)c(NC(=O)c2ccc(C(F)(F)F)c(-c3ccn(C)n3)c2)c(-c2ccccc2)n1 [Example 4, N-(4-Chloro-2-methyl-6-phenylpyrimidin-5-yl)-3-(1-methyl-1H-pyrazol-3-yl)-4-(trifluoromethyl)benzamide] | 6.80 |
| Cc1cc(-c2ccccc2)c(NC(=O)c2ccc(C(F)(F)F)c(-c3cc[nH]n3)c2)cn1 [Example 5, N-(6-Methyl-4-phenylpyridin-3-yl)-3-(1H-pyrazol-5-yl)-4-(trifluoromethyl)benzamide] | 7.85 |
| O=C(Nc1ccccc1-c1ccc(F)cc1)c1ccc(C(F)(F)F)cc1F [Example 6, 2-fluoro-N-(4′-fluorobiphenyl-2-yl)-4-(trifluoromethyl)benzamide] | 5.31 |
| Cc1cc(-c2ccccc2NC(=O)c2cccc(-c3nccs3)c2)n[nH]1 [Example 7, N-[2-(5-methyl-1H-pyrazol-3-yl)phenyl]-3-(1,3-thiazol-2-yl)benzamide] | 5.40 |
| Cc1ncc(NC(=O)c2ccc(C)c(F)c2F)c(-c2ccccc2)n1 [Example 8, 2,3-difluoro-4-methyl-N-(2-methyl-4-phenylpyrimidin-5-yl)benzamide] | 5.37 |
